Legend:
Assay type in all cases: cell-based
BT-474 = assay: Cancer cell panel, cell viability (resazurin): Breast, BT-474; conditions: BT-474 (Breast), 72 hours; labelled drug combined with Example 3
Procedure: (§1) Cells were plated in 96-well plates and treated for 72 hours with a serially diluted CK2 inhibitor or anti-cancer drug or their combination. The suspension cell lines were treated right after plating, while the adherent cells were allowed to attach overnight prior to the start of the treatment.
(§2) Cell viability was determined by adding resazurin to cell cultures and measuring fluorescence with a plate reader. Relative cell viability was calculated by dividing the cell viability signal from a test sample by that of a non-treated control. […] Bliss Independence and Highest Single Agent models were used to determine if there is synergy, additivity or antagonism between the CK2 inhibitor and an anti-cancer drug.

ZR-75-1 = assay: Cancer cell panel, cell viability (resazurin): Breast, ZR-75-1; conditions: ZR-75-1 (Breast), 72 hours; labelled drug combined with Example 3
T47D = assay: Cancer cell panel, cell viability (resazurin): Breast, T47D; conditions: 72 hours, labelled drug combined with Example 3
MCF7 = assay: Cancer cell panel, cell viability (resazurin): Breast, MCF7; conditions: 72 hours, labelled drug combined with Example 3
Procedure: as §1, §2

786-O = assay: Cancer cell panel, cell viability (resazurin): Renal, 786-O; conditions: 786-O (Renal), 72 hours; labelled drug combined with Example 3
Procedure: as §1, §2

ACHN = assay: Cancer cell panel, cell viability (resazurin): Renal, ACHN; conditions: 72 hours, labelled drug combined with Example 3
Caki-1 = assay: Cancer cell panel, cell viability (resazurin): Renal, Caki-1; conditions: Caki-1 (Renal), 72 hours; labelled drug combined with Example 3
Caki-2 = assay: Cancer cell panel, cell viability (resazurin): Renal, Caki-2; conditions: Caki-2 (Renal), 72 hours; labelled drug combined with Example 3
Procedure: as §1, §2

A375 = assay: Cancer cell panel, cell viability (resazurin): Melanoma, A375; conditions: 72 hours, labelled drug combined with Example 3
Procedure: as §1, §2

SK-MEL-3 = assay: Cancer cell panel, cell viability (resazurin): Melanoma, SK-MEL-3; conditions: SK-MEL-3 (Melanoma), 72 hours; labelled drug combined with Example 3
SK-MEL-24 = assay: Cancer cell panel, cell viability (resazurin): Melanoma, SK-MEL-24; conditions: SK-MEL-24 (Melanoma), 72 hours; labelled drug combined with Example 3
WM-115 = assay: Cancer cell panel, cell viability (resazurin): Melanoma, WM-115; conditions: WM-115 (Melanoma), 72 hours; labelled drug combined with Example 3
Procedure: as §1, §2

MeWO = assay: Cancer cell panel, cell viability (resazurin): Melanoma, MeWO; conditions: 72 hours, labelled drug combined with Example 3
RPMI8226 = assay: Cancer cell panel, cell viability (resazurin): multiple myeloma, RPMI8226; conditions: 72 hours, labelled drug combined with Example 3
U87MG = assay: Cancer cell panel, cell viability (resazurin): Glioblastoma, U87MG; conditions: 72 hours, labelled drug combined with Example 3
Procedure: as §1, §2

Ramos = assay: Cancer cell panel, cell viability (resazurin): Burkitt's Lymphoma, Ramos; conditions: 72 hours, labelled drug combined with Example 3
Procedure: as §1, §2

Raji = assay: Cancer cell panel, cell viability (resazurin): Burkitt's Lymphoma, Raji; conditions: 72 hours, labelled drug combined with Example 3
Daudi = assay: Cancer cell panel, cell viability (resazurin): Burkitt's Lymphoma, Daudi; conditions: 72 hours, labelled drug combined with Example 3
Procedure: as §1, §2

NAMALWA = assay: Cancer cell panel, cell viability (resazurin): Burkitt's Lymphoma, NAMALWA; conditions: 72 hours, labelled drug combined with Example 3
K562 = assay: Cancer cell panel, cell viability (resazurin): Leukemia, K562; conditions: 72 hours, labelled drug combined with Example 3
HL60 = assay: Cancer cell panel, cell viability (resazurin): Leukemia, HL60; conditions: 72 hours, labelled drug combined with Example 3
EOL-1 = assay: Cancer cell panel, cell viability (resazurin): Leukemia, EOL-1; conditions: EOL-1 (Leukemia), 72 hours; labelled drug combined with Example 3
MOLT4 = assay: Cancer cell panel, cell viability (resazurin): Leukemia, MOLT4; conditions: 72 hours, labelled drug combined with Example 3

Compound: Nc1ccn([C@@H]2O[C@H](CO)[C@@H](O)C2(F)F)c(=O)n1 [Gemcitabine, gemcitabine]
- synergy, additivity or antagonism of the combination of Example 3 with the anti-cancer drug (BT-474): + (Additive relative to each agent alone (CI = 0.9-1 by Bliss Independence Model and <0.9 by Highest Single Agent Model))
- synergy, additivity or antagonism of the combination of Example 3 with the anti-cancer drug (ZR-75-1): + (Additive relative to each agent alone (CI = 0.9-1 by Bliss Independence Model and <0.9 by Highest Single Agent Model))
- synergy, additivity or antagonism of the combination of Example 3 with the anti-cancer drug (T47D): + (Additive relative to each agent alone (CI = 0.9-1 by Bliss Independence Model and <0.9 by Highest Single Agent Model))
- synergy, additivity or antagonism of the combination of Example 3 with the anti-cancer drug (MCF7): + (Additive relative to each agent alone (CI = 0.9-1 by Bliss Independence Model and <0.9 by Highest Single Agent Model))
- synergy, additivity or antagonism of the combination of Example 3 with the anti-cancer drug (786-O): + + + (Synergy relative to each agent alone (CI = 0.4-0.74 by Bliss Independence Model))
- synergy, additivity or antagonism of the combination of Example 3 with the anti-cancer drug (ACHN): + (Additive relative to each agent alone (CI = 0.9-1 by Bliss Independence Model and <0.9 by Highest Single Agent Model))
- synergy, additivity or antagonism of the combination of Example 3 with the anti-cancer drug (Caki-1): + (Additive relative to each agent alone (CI = 0.9-1 by Bliss Independence Model and <0.9 by Highest Single Agent Model))
- synergy, additivity or antagonism of the combination of Example 3 with the anti-cancer drug (Caki-2): + (Additive relative to each agent alone (CI = 0.9-1 by Bliss Independence Model and <0.9 by Highest Single Agent Model))
- synergy, additivity or antagonism of the combination of Example 3 with the anti-cancer drug (A375): + (Additive relative to each agent alone (CI = 0.9-1 by Bliss Independence Model and <0.9 by Highest Single Agent Model))
- synergy, additivity or antagonism of the combination of Example 3 with the anti-cancer drug (SK-MEL-3): + (Additive relative to each agent alone (CI = 0.9-1 by Bliss Independence Model and <0.9 by Highest Single Agent Model))
- synergy, additivity or antagonism of the combination of Example 3 with the anti-cancer drug (SK-MEL-24): + (Additive relative to each agent alone (CI = 0.9-1 by Bliss Independence Model and <0.9 by Highest Single Agent Model))
- synergy, additivity or antagonism of the combination of Example 3 with the anti-cancer drug (WM-115): + (Additive relative to each agent alone (CI = 0.9-1 by Bliss Independence Model and <0.9 by Highest Single Agent Model))
- synergy, additivity or antagonism of the combination of Example 3 with the anti-cancer drug (MeWO): + (Additive relative to each agent alone (CI = 0.9-1 by Bliss Independence Model and <0.9 by Highest Single Agent Model))
- synergy, additivity or antagonism of the combination of Example 3 with the anti-cancer drug (RPMI8226): + + (Slight synergy relative to each agent alone (CI = 0.75-0.9 by Bliss Independence Model))
- synergy, additivity or antagonism of the combination of Example 3 with the anti-cancer drug (U87MG): + (Additive relative to each agent alone (CI = 0.9-1 by Bliss Independence Model and <0.9 by Highest Single Agent Model))
- synergy, additivity or antagonism of the combination of Example 3 with the anti-cancer drug (Ramos): + + (Slight synergy relative to each agent alone (CI = 0.75-0.9 by Bliss Independence Model))
- synergy, additivity or antagonism of the combination of Example 3 with the anti-cancer drug (Raji): + + (Slight synergy relative to each agent alone (CI = 0.75-0.9 by Bliss Independence Model))
- synergy, additivity or antagonism of the combination of Example 3 with the anti-cancer drug (Daudi): + + (Slight synergy relative to each agent alone (CI = 0.75-0.9 by Bliss Independence Model))
- synergy, additivity or antagonism of the combination of Example 3 with the anti-cancer drug (NAMALWA): + + (Slight synergy relative to each agent alone (CI = 0.75-0.9 by Bliss Independence Model))
- synergy, additivity or antagonism of the combination of Example 3 with the anti-cancer drug (K562): + (Additive relative to each agent alone (CI = 0.9-1 by Bliss Independence Model and <0.9 by Highest Single Agent Model))
- synergy, additivity or antagonism of the combination of Example 3 with the anti-cancer drug (HL60): + + (Slight synergy relative to each agent alone (CI = 0.75-0.9 by Bliss Independence Model))
- synergy, additivity or antagonism of the combination of Example 3 with the anti-cancer drug (EOL-1): + + + + (Strong synergy relative to each agent alone (CI < 0.4 by Bliss Independence Model))
- synergy, additivity or antagonism of the combination of Example 3 with the anti-cancer drug (MOLT4): + + + (Synergy relative to each agent alone (CI = 0.4-0.74 by Bliss Independence Model))
